Assay results reported in patent US20230277534A1 (Plexxikon Inc., priority 2011, published 2023).

Experiments:
[1] = molecular target: B-Raf V600E (Homo sapiens (Human), UniProt P15056, V600E); experiment: B-Raf V600E kinase biochemical activity assay (AlphaScreen, biotin-MEK1 substrate); details: 100 μM ATP
Procedure, shortened: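 B-Raf V600E (0.1 ng) phosphorylated 100 nM biotin-MEK1 with 100 μM ATP (final) in HEPES pH 7.0 with Mg2+/Mn2+ for 45 min at room temperature. Compounds were tested over an 8-point serial dilution. Phospho-MEK1/2 was detected by AlphaScreen after 3 h with beads, and IC50 came from signal versus concentration.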

[2] = test system: COLO205 colon adenocarcinoma cells (B-Raf V600E mutation); experiment: COLO205 cell growth inhibition (ATPlite); type: cell-based; details: Homo sapiens, COLO 205, 72 h, 3 days
Procedure, shortened: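 Cells treated for 3 days at 37 °C, 5% CO2 with an 8-point 1:3 dilution series, top final concentration 10 μM, DMSO control. ATPlite luminescence used as a measure of cell number; IC50 from reading versus concentration.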

Sequence of B-Raf V600E (P15056 whole entry V600E): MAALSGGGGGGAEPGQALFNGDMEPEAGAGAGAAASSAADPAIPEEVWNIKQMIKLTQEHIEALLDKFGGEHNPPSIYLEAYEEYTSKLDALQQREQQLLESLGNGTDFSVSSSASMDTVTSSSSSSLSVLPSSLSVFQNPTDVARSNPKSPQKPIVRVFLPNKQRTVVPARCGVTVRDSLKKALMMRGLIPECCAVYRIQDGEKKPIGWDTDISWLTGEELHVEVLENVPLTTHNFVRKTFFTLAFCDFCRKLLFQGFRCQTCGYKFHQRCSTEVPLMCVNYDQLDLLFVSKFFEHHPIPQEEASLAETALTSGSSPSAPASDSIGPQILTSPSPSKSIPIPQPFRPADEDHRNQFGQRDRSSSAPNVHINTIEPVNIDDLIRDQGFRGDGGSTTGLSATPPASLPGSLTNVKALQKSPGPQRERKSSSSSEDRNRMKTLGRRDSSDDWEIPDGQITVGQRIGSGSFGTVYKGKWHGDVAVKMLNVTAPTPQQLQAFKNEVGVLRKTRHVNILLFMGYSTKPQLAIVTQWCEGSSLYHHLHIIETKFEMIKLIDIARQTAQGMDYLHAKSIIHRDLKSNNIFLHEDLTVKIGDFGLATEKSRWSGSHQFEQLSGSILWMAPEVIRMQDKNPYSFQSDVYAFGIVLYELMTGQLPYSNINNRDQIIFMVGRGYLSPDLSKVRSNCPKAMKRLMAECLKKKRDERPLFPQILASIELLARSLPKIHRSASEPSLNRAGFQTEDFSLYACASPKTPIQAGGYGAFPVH

| SMILES | IC50 [1] | IC50 [2] |
| --- | --- | --- |
| CCN(C)S(=O)(=O)Nc1ccc(F)c(C(=O)c2c[nH]c3ncc(-c4ccnc(F)c4)cc23)c1F [Compound P-0283, 3-[3-[[ethyl(methyl)sulfamoyl]amino]-2,6-difluoro-benzoyl]-5-(2-fluoro-4-pyridyl)-1H-pyrrolo[2,3-b]pyridine] | < 0.1 µM | < 1 µM |
| CN1CCN(c2cc(-c3cnc4[nH]cc(C(=O)c5c(F)ccc(NS(=O)(=O)N6CCCC6)c5F)c4c3)ccn2)CC1 [Compound P-0285, N-[2,4-difluoro-3-[5-[2-(4-methylpiperazin-1-yl)-4-pyridyl]-1H-pyrrolo[2,3-b]pyridine-3-carbonyl]phenyl]pyrrolidine-1-sulfonamide] | < 0.1 µM | < 1 µM |
| O=C(c1c(F)ccc(NS(=O)(=O)N2CC[C@H](F)C2)c1F)c1c[nH]c2ncc(-c3cnc(C4CC4)nc3)cc12 [Compound P-0289, (3S)—N-[3-[5-(2-cyclopropylpyrimidin-5-yl)-1H-pyrrolo[2,3-b]pyridine-3-carbonyl]-2,4-difluoro-phenyl]-3-fluoro-pyrrolidine-1-sulfonamide] | < 0.1 µM | < 1 µM |
| CCN(C)S(=O)(=O)Nc1ccc(F)c(C(=O)c2c[nH]c3ncc(-c4cnc(N5CCCC5)nc4)cc23)c1F [Compound P-0293, 3-[3-[[ethyl(methyl)sulfamoyl]amino]-2,6-difluoro-benzoyl]-5-(2-pyrrolidin-1-ylpyrimidin-5-yl)-1H-pyrrolo[2,3-b]pyridine] | < 0.1 µM | < 1 µM |
| CCN(C)S(=O)(=O)Nc1cccc(C(=O)c2c[nH]c3ncc(C4CCC4)cc23)c1F [Compound P-0297, 5-cyclobutyl-3-[3-[[ethyl(methyl)sulfamoyl]amino]-2-fluoro-benzoyl]-1H-pyrrolo[2,3-b]pyridine] | < 0.1 µM | > 1 µM |
| CCN(C)S(=O)(=O)Nc1cccc(C(=O)c2c[nH]c3ncc(C4CC4)cc23)c1F [Compound P-0298, 5-cyclopropyl-3-[3-[[ethyl(methyl)sulfamoyl]amino]-2-fluoro-benzoyl]-1H-pyrrolo[2,3-b]pyridine] | < 0.1 µM | > 1 µM |
| Nc1cc(-c2cnc3[nH]cc(C(=O)c4cccc(NS(=O)(=O)N5CCCC5)c4F)c3c2)ncn1 [Compound P-0299, N-[3-[5-(6-aminopyrimidin-4-yl)-1H-pyrrolo[2,3-b]pyridine-3-carbonyl]-2-fluoro-phenyl]pyrrolidine-1-sulfonamide] | < 0.1 µM | > 1 µM |
| CCN(C)S(=O)(=O)Nc1ccc(F)c(C(=O)c2c[nH]c3ncc(-c4ccc(C(F)(F)F)cc4)cc23)c1F [Compound P-0301, 3-[3-[[ethyl(methyl)sulfamoyl]amino]-2,6-difluoro-benzoyl]-5-[4-(trifluoromethyl)phenyl]-1H-pyrrolo[2,3-b]pyridine] | < 0.1 µM | > 1 µM |
| CCN(C)S(=O)(=O)Nc1ccc(F)c(C(=O)c2c[nH]c3ncc(-c4ccc(N5CCCC5)cc4)cc23)c1F [Compound P-0303, 3-[3-[[ethyl(methyl)sulfamoyl]amino]-2,6-difluoro-benzoyl]-5-(4-pyrrolidin-1-ylphenyl)-1H-pyrrolo[2,3-b]pyridine] | < 0.1 µM | > 1 µM |
| CCN(C)S(=O)(=O)Nc1ccc(F)c(C(=O)c2c[nH]c3ncc(-c4ccc(-c5nnc(C)o5)cc4)cc23)c1F [Compound P-0304, 2-[4-[3-[3-[[ethyl(methyl)sulfamoyl]amino]-2,6-difluoro-benzoyl]-1H-pyrrolo[2,3-b]pyridin-5-yl]phenyl]-5-methyl-1,3,4-oxadiazole] | < 0.1 µM | < 1 µM |
| CCN(C)S(=O)(=O)Nc1ccc(F)c(C(=O)c2c[nH]c3ncc(-c4ccc(-c5nnc(NC)s5)cc4)cc23)c1F [Compound P-0305, 2-[4-[3-[3-[[ethyl(methyl)sulfamoyl]amino]-2,6-difluoro-benzoyl]-1H-pyrrolo[2,3-b]pyridin-5-yl]phenyl]-5-(methylamino)-1,3,4-thiadiazole] | < 0.1 µM | < 1 µM |
| CCN(C)S(=O)(=O)Nc1ccc(F)c(C(=O)c2c[nH]c3ncc(-c4cncc(C(C)(C)O)c4)cc23)c1F [Compound P-0306, 3-[3-[[ethyl(methyl)sulfamoyl]amino]-2,6-difluoro-benzoyl]-5-[5-(1-hydroxy-1-methyl-ethyl)-3-pyridyl]-1H-pyrrolo[2,3-b]pyridine] | < 0.1 µM | < 1 µM |
| CCN(C)S(=O)(=O)Nc1ccc(F)c(C(=O)c2c[nH]c3ncc(-c4ccc(C(C)(C)O)nc4)cc23)c1F [Compound P-0307, 3-[3-[[ethyl(methyl)sulfamoyl]amino]-2,6-difluoro-benzoyl]-5-[6-(1-hydroxy-1-methyl-ethyl)-3-pyridyl]-1H-pyrrolo[2,3-b]pyridine] | < 0.1 µM | < 1 µM |
| CCN(CC)c1ccc(-c2cnc3[nH]cc(C(=O)c4c(F)ccc(NS(=O)(=O)N(C)CC)c4F)c3c2)cc1 [Compound P-0308, 5-[4-(diethylamino)phenyl]-3-[3-[[ethyl(methyl)sulfamoyl]amino]-2,6-difluoro-benzoyl]-1H-pyrrolo[2,3-b]pyridine] | < 0.1 µM | < 1 µM |
| CCN(C)S(=O)(=O)Nc1ccc(F)c(C(=O)c2c[nH]c3ncc(-c4ccc5c(c4)NC(=O)C5)cc23)c1F [Compound P-0309, 3-[3-[[ethyl(methyl)sulfamoyl]amino]-2,6-difluoro-benzoyl]-5-(2-oxoindolin-6-yl)-1H-pyrrolo[2,3-b]pyridine] | < 0.1 µM | < 1 µM |
| CCN(C)S(=O)(=O)Nc1ccc(F)c(C(=O)c2c[nH]c3ncc(-c4ccc(-c5noc(C)n5)s4)cc23)c1F [Compound P-0310, 3-[5-[3-[3-[[ethyl(methyl)sulfamoyl]amino]-2,6-difluoro-benzoyl]-1H-pyrrolo[2,3-b]pyridin-5-yl]-2-thienyl]-5-methyl-1,2,4-oxadiazole] | < 0.1 µM | < 1 µM |
| CCN(C)S(=O)(=O)Nc1ccc(F)c(C(=O)c2c[nH]c3ncc(-c4ccc5nc(N)ncc5c4)cc23)c1F [Compound P-0311, 2-amino-6-[3-[3-[[ethyl(methyl)sulfamoyl]amino]-2,6-difluoro-benzoyl]-1H-pyrrolo[2,3-b]pyridin-5-yl]quinazoline] | < 0.1 µM | < 1 µM |
| CCN(C)S(=O)(=O)Nc1ccc(F)c(C(=O)c2c[nH]c3ncc(-c4ccc5nc(N(C)C)ncc5c4)cc23)c1F [Compound P-0313, 2-(dimethylamino)-6-[3-[3-1[[ethyl(methyl)sulfamoyl]amino]-2,6-difluoro-benzoyl]-1H-pyrrolo[2,3-b]pyridin-5-yl]quinazoline] | < 0.1 µM | < 1 µM |
| CCN(C)S(=O)(=O)Nc1ccc(F)c(C(=O)c2c[nH]c3ncc(-c4ccc(C5(O)CC5)cc4)cc23)c1F [Compound P-0314, 3-[3-1[[ethyl(methyl)sulfamoyl]amino]-2,6-difluoro-benzoyl]-5-[4-(1-hydroxycyclopropyl)phenyl]-1H-pyrrolo[2,3-b]pyridine] | < 0.1 µM | < 1 µM |
| CCN(C)S(=O)(=O)Nc1ccc(F)c(C(=O)c2c[nH]c3ncc(-c4cncs4)cc23)c1F [Compound P-0315, 5-[3-[3-[[ethyl(methyl)sulfamoyl]amino]-2,6-difluoro-benzoyl]-1H-pyrrolo[2,3-b]pyridin-5-yl]thiazole] | < 0.1 µM | < 1 µM |
| CCN(C)S(=O)(=O)Nc1ccc(F)c(C(=O)c2c[nH]c3ncc(-c4csc(C(C)(C)O)n4)cc23)c1F [Compound P-0316, 4-[3-[3-[[ethyl(methyl)sulfamoyl]amino]-2,6-difluoro-benzoyl]-1H-pyrrolo[2,3-b]pyridin-5-yl]-2-(1-hydroxy-1-methyl-ethyl)thiazole] | < 0.1 µM | < 1 µM |
| CCN(C)S(=O)(=O)Nc1ccc(F)c(C(=O)c2c[nH]c3ncc(-c4ccc(OC)nn4)cc23)c1F [Compound P-0317, 3-[3-[[ethyl(methyl)sulfamoyl]amino]-2,6-difluoro-benzoyl]-5-(6-methoxypyridazin-3-yl)-1H-pyrrolo[2,3-b]pyridine] | < 0.1 µM | < 1 µM |
| O=C(c1c(F)ccc(NS(=O)(=O)N2CCCC2)c1F)c1c[nH]c2ncc(-c3cc(N4CCOCC4)ncn3)cc12 [Compound P-0318, N-[2,4-difluoro-3-[5-(6-morpholinopyrimidin-4-yl)-1H-pyrrolo[2,3-b]pyridine-3-carbonyl]phenyl]pyrrolidine-1-sulfonamide] | < 0.1 µM | < 1 µM |
| O=C(c1cccc(NS(=O)(=O)N2CCCC2)c1F)c1c[nH]c2ncc(-c3cc(N4CCOCC4)ncn3)cc12 [Compound P-0321, N-[2-fluoro-3-[5-(6-morpholinopyrimidin-4-yl)-1H-pyrrolo[2,3-b]pyridine-3-carbonyl]phenyl]pyrrolidine-1-sulfonamide] | < 0.1 µM | < 1 µM |
| CN1CCN(c2cc(-c3cnc4[nH]cc(C(=O)c5cccc(NS(=O)(=O)N6CCCC6)c5F)c4c3)ncn2)CC1 [Compound P-0322, N-[2-fluoro-3-[5-[6-(4-methylpiperazin-1-yl)pyrimidin-4-yl]-1H-pyrrolo[2,3-b]pyridine-3-carbonyl]phenyl]pyrrolidine-1-sulfonamide] | < 0.1 µM | < 1 µM |
| CN1CCN(c2cccc(-c3cnc4[nH]cc(C(=O)c5cccc(NS(=O)(=O)N6CCCC6)c5F)c4c3)n2)CC1 [Compound P-0324, N-[2-fluoro-3-[5-[6-(4-methylpiperazin-1-yl)-2-pyridyl]-1H-pyrrolo[2,3-b]pyridine-3-carbonyl]phenyl]pyrrolidine-1-sulfonamide] | < 0.1 µM | < 1 µM |
